Data taken from PMC6642015 (Cell chemical biology, 2019).
Positions count from the first letter of the chain named.

Tests used:
Assay in all cases: isothermal titration calorimetry
Format in all cases: binding
human CblA (MMAA) [1] = target: T1, human CblA (MMAA) (Homo sapiens, UniProt Q8IVH4, G278D); conditions: pH 7.5, 150 mM KCl, 2 mM MgCl2, 20 °C; one-site model
T1 sequence (Q8IVH4 66-418 G278D limits assumed): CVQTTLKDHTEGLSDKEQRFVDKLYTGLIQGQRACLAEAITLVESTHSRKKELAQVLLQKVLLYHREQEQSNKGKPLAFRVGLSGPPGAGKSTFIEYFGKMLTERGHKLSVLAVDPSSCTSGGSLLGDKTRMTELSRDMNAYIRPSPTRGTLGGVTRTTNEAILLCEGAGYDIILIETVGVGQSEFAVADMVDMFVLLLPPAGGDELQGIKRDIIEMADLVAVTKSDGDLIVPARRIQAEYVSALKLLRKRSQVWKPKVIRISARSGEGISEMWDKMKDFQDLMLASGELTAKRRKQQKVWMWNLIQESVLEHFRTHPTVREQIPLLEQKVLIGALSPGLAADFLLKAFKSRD

human CblA (MMAA) [2] = target: T2, human CblA (MMAA) (Homo sapiens, UniProt Q8IVH4)
T2 sequence (Q8IVH4 66-418 limits assumed): T1 sequence (Q8IVH4 66-418 G278D limits assumed) with D213G

human CblA (MMAA) [3] = target: T3, human CblA (MMAA) (Homo sapiens, UniProt Q8IVH4, K276E); conditions: pH 7.5, 150 mM KCl, 2 mM MgCl2, 20 °C; one-site model
T3 sequence (Q8IVH4 66-418 K276E limits assumed): T1 sequence (Q8IVH4 66-418 G278D limits assumed) with K211E, D213G

human CblA (MMAA) [4] = target: T4, human CblA (MMAA) (Homo sapiens, UniProt Q8IVH4, K276A); conditions: pH 7.5, 150 mM KCl, 2 mM MgCl2, 20 °C; one-site model
T4 sequence (Q8IVH4 66-418 K276A limits assumed): T1 sequence (Q8IVH4 66-418 G278D limits assumed) with K211A, D213G

human CblA (MMAA) [5] = target: T5, human CblA (MMAA) (Homo sapiens, UniProt Q8IVH4, G274S); conditions: pH 7.5, 150 mM KCl, 2 mM MgCl2, 20 °C; one-site model
T5 sequence (Q8IVH4 66-418 G274S limits assumed): T1 sequence (Q8IVH4 66-418 G278D limits assumed) with G209S, D213G

human CblA (MMAA) [6] = target: T6, human CblA (MMAA) (Homo sapiens, UniProt Q8IVH4, Q273A); conditions: pH 7.5, 150 mM KCl, 2 mM MgCl2, 20 °C; one-site model
T6 sequence (Q8IVH4 66-418 Q273A limits assumed): T1 sequence (Q8IVH4 66-418 G278D limits assumed) with Q208A, D213G

**Q.** What does the source list for `Nc1nc2c(ncn2[C@@H]2O[C@H](COP(=O)(O)OP(=O)(O)O)[C@@H](O)[C@H]2O)c(=O)[nH]1` [GDP]?
**A.** KD (human CblA (MMAA) [1]): largely unaffected by switch III mutations (Table S1); Kd (human CblA (MMAA) [2]): 1100 ± 300 nM; KD (human CblA (MMAA) [3]): largely unaffected by switch III mutations (Table S1); KD (human CblA (MMAA) [4]): largely unaffected by switch III mutations (Table S1); KD (human CblA (MMAA) [5]): largely unaffected by switch III mutations (Table S1); KD (human CblA (MMAA) [6]): largely unaffected by switch III mutations (Table S1)
